Source: PubChem BioAssay AID330 (DTP/NCI, 2004)
Values joined by “and” are separate entries in the source; they are usually repeats but may differ in a detail not shown here. Equal entries are not always repeated. Toxic doses and inconclusive results are not listed. How the source made its calls: active means survival T/C of 150% or more; inactive means T/C below 125% in these data.

Test system: P388 leukemia ip, CD2F1 mice, survival T/C
Assay: NCI In Vivo Anticancer Drug Screen. Data for tumor model P388 Leukemia (intraperitoneal) in CD2F1 (CDF1) mice
Details: endpoint: median survival time, higher = longer survival
Outline: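 Mice carrying the transplanted tumor received test compound or vehicle. Survival was recorded in each group, and the value is the treated-group measurement divided by that of the vehicle-treated control group.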

[1] = dose: 100.0 mg/kg/injection, schedule: Q04DX002 (ip), vehicle: saline with Tween-80
[2] = dose: 50.0 mg/kg/injection, schedule: Q01DX009 (ip), vehicle: Klucel (hydroxypropylcellulose) (HPC)
[3] = dose: 100.0 mg/kg/injection, schedule: Q01DX009 (ip), vehicle: Klucel (hydroxypropylcellulose) (HPC)
[4] = dose: 200.0 mg/kg/injection, schedule: Q01DX009 (ip), vehicle: Klucel (hydroxypropylcellulose) (HPC)
[5] = dose: 50.0 mg/kg/injection, schedule: Q01DX009 (ip), vehicle: saline with Tween-80
[6] = dose: 100.0 mg/kg/injection, schedule: Q01DX009 (ip), vehicle: saline with Tween-80
[7] = dose: 200.0 mg/kg/injection, schedule: Q01DX009 (ip), vehicle: saline with Tween-80
[8] = dose: 25.0 mg/kg/injection, schedule: Q01DX009 (ip), vehicle: Klucel (hydroxypropylcellulose) (HPC)
[9] = dose: 50.0 mg/kg/injection, schedule: Q01DX009 (ip), vehicle: saline
[10] = dose: 100.0 mg/kg/injection, schedule: Q01DX009 (ip), vehicle: saline
[11] = dose: 200.0 mg/kg/injection, schedule: Q01DX009 (ip), vehicle: saline
[12] = dose: 25.0 mg/kg/injection, schedule: Q01DX009 (ip), vehicle: saline with Tween-80
[13] = dose: 100.0 mg/kg/injection, schedule: Q01DX005 (ip), vehicle: Klucel (hydroxypropylcellulose) (HPC)
[14] = dose: 6.25 mg/kg/injection, schedule: Q01DX009 (ip), vehicle: saline with Tween-80
[15] = dose: 12.5 mg/kg/injection, schedule: Q01DX009 (ip), vehicle: saline with Tween-80
[16] = dose: 50.0 mg/kg/injection, schedule: Q01DX005 (ip), vehicle: Klucel (hydroxypropylcellulose) (HPC)
[17] = dose: 200.0 mg/kg/injection, schedule: Q01DX005 (ip), vehicle: Klucel (hydroxypropylcellulose) (HPC)

Measured: T/C

N#CC(=O)c1ccccc1
inactive: dose: 3.12 mg/kg/injection, schedule: Q04DX003 (ip), vehicle: saline with Tween-80 101 % of control | dose: 6.25 mg/kg/injection, schedule: Q04DX003 (ip), vehicle: saline with Tween-80 100 % of control | dose: 12.5 mg/kg/injection, schedule: Q04DX003 (ip), vehicle: saline with Tween-80 103 % of control and 105 % of control | dose: 400.0 mg/kg/injection, schedule: Q04DX003 (ip), vehicle: saline with Tween-80 101 % of control

COC1/C=C\C=C(/C)C(=O)NC2=CC(=O)C(NCCCl)=C(CC(C)CC(OC)C(O)C(C)/C=C(/C)C1OC(N)=O)C2=O (centres undefined)
inactive: dose: 1.5 mg/kg/injection, schedule: Q01DX009 (ip), vehicle: DMSO 107 % of control | dose: 3.0 mg/kg/injection, schedule: Q01DX009 (ip), vehicle: DMSO 108 % of control | dose: 3.12 mg/kg/injection, schedule: Q04DX002 (ip), vehicle: saline with Tween-80 115 % of control | dose: 5.0 mg/kg/injection, schedule: Q04DX002 (ip), vehicle: saline with Tween-80 111 % of control | dose: 6.0 mg/kg/injection, schedule: Q01DX009 (ip), vehicle: DMSO 111 % of control | dose: 6.25 mg/kg/injection, schedule: Q04DX002 (ip), vehicle: saline with Tween-80 123 % of control | dose: 12.0 mg/kg/injection, schedule: Q01DX009 (ip), vehicle: DMSO 117 % of control | dose: 12.5 mg/kg/injection, schedule: Q04DX002 (ip), vehicle: saline with Tween-80 119 % of control | dose: 20.0 mg/kg/injection, schedule: Q04DX002 (ip), vehicle: saline with Tween-80 122 % of control

CC(=O)OCC1CC2COCC2CC1COC(C)=O (centres undefined)
inactive: dose: 60.0 mg/kg/injection, schedule: Q01DX005 (ip), vehicle: saline with Tween-80 100 % of control | dose: 120.0 mg/kg/injection, schedule: Q01DX005 (ip), vehicle: saline with Tween-80 108 % of control | dose: 240.0 mg/kg/injection, schedule: Q01DX005 (ip), vehicle: saline with Tween-80 102 % of control

C=C1C(=O)O[C@@H]2C3=C(C)C(=O)C=C[C@]3(C)CC[C@@H]12
inactive: [1] 109 % of control

C=C(CCCCC)C(=O)/C=C/c1ccccc1
inactive: [2] 103 % of control | [3] 107 % of control | [4] 118 % of control

O=C(NCc1ccccc1)C1C(=O)N(Cc2ccccc2)C(=O)/C1=N/O (centres undefined)
inactive: dose: 50.0 mg/kg/injection, schedule: Q01DX005 (ip), vehicle: saline with Tween-80 100 % of control | dose: 100.0 mg/kg/injection, schedule: Q01DX005 (ip), vehicle: saline with Tween-80 100 % of control | dose: 200.0 mg/kg/injection, schedule: Q01DX005 (ip), vehicle: saline with Tween-80 100 % of control

O=C(Nc1cccc(Cl)c1)ON1C(=O)C2C(C1=O)C1(Cl)C(Cl)C(Cl)C2(Cl)C1(Cl)Cl (centres undefined)
inactive: [5] 103 % of control and 110 % of control | [6] 110 % of control and 112 % of control and 120 % of control | [7] 106 % of control and 124 % of control | dose: 400.0 mg/kg/injection, schedule: Q01DX009 (ip), vehicle: saline with Tween-80 108 % of control and 110 % of control

COC(=O)C1=C(C(=O)OC)C2C3CC4C(C13)C42
inactive: dose: 9.4 mg/kg/injection, schedule: Q01DX009 (none), vehicle: saline 105 % of control | dose: 18.75 mg/kg/injection, schedule: Q01DX009 (none), vehicle: saline 106 % of control | dose: 37.5 mg/kg/injection, schedule: Q01DX009 (none), vehicle: saline 105 % of control | dose: 75.0 mg/kg/injection, schedule: Q01DX009 (none), vehicle: saline 99 % of control

CCN(CC)Cc1cc(N=Nc2cc(OC)c(N=Nc3ccc([N+](=O)[O-])cc3)cc2OC)c2ccccc2c1O
inactive: dose: 12.5 mg/kg/injection, schedule: Q01DX009 (ip), vehicle: Klucel (hydroxypropylcellulose) (HPC) 110 % of control | [8] 100 % of control | [2] 107 % of control and 90 % of control | [3] 100 % of control (2×) and 94 % of control | dose: 400.0 mg/kg/injection, schedule: Q01DX009 (ip), vehicle: Klucel (hydroxypropylcellulose) (HPC) 101 % of control and 91 % of control

CC(=O)CC(=O)N(C)C
inactive: [9] 100 % of control | [10] 98 % of control | [11] 99 % of control | dose: 400.0 mg/kg/injection, schedule: Q01DX009 (ip), vehicle: saline 99 % of control

CC(C)N(C(=S)/N=C1/SC(C)S(=O)(=O)N1C)C(C)C (centres undefined)
inactive: [12] 117 % of control | [5] 97 % of control | [6] 100 % of control

C[N+](C)(C)[C@H]1CCCC[C@@H]1O
inactive: dose: 50.0 mg/kg/injection, schedule: Q01DX005 (ip), vehicle: distilled water + alcohol 104 % of control | dose: 100.0 mg/kg/injection, schedule: Q01DX005 (ip), vehicle: distilled water + alcohol 99 % of control | dose: 200.0 mg/kg/injection, schedule: Q01DX005 (ip), vehicle: distilled water + alcohol 105 % of control

CC1CN=C(CCc2ccc(NC(=O)c3ccc(C(=O)Nc4ccc(CCC5=NCC(C)N5)cc4)cc3)cc2)N1 (centres undefined)
inactive: dose: 12.5 mg/kg/injection, schedule: Q01DX005 (ip), vehicle: Klucel (hydroxypropylcellulose) (HPC) 108 % of control | dose: 25.0 mg/kg/injection, schedule: Q01DX005 (ip), vehicle: Klucel (hydroxypropylcellulose) (HPC) 108 % of control
active: [13] 160 % of control

CCOC(=O)c1[nH]c(=S)n(-c2ccccc2)c1C(=O)OCC
inactive: [14] 101 % of control | [15] 110 % of control | [12] 111 % of control | [5] 101 % of control

Nc1cc2c3c(cccc3c1)C(=O)N(CCN1CCCC1)C2=O
active: dose: 12.1 mg/kg/injection, schedule: Q01DX009 (ip), vehicle: saline with Tween-80 163 % of control | dose: 24.2 mg/kg/injection, schedule: Q01DX009 (ip), vehicle: saline with Tween-80 160 % of control and 180 % of control | [5] 173 % of control | [6] 189 % of control
inactive: [14] 102 % of control | dose: 6.5 mg/kg/injection, schedule: Q01DX009 (ip), vehicle: saline with Tween-80 122 % of control | [15] 110 % of control | dose: 48.39 mg/kg/injection, schedule: Q01DX009 (ip), vehicle: saline with Tween-80 86 % of control and 96 % of control

C/C(=N\NC(N)=Nc1ccc(C)cc1)c1ccc2c(c1)Cc1ccccc1-2
inactive: dose: 25.0 mg/kg/injection, schedule: Q04DX002 (ip), vehicle: saline with Tween-80 91 % of control | dose: 50.0 mg/kg/injection, schedule: Q04DX002 (ip), vehicle: saline with Tween-80 99 % of control | [1] 97 % of control

CN(C)CCCC12OC(c3ccccc31)C(O)c1ccccc12 (centres undefined)
inactive: [8] 102 % of control | [2] 103 % of control | [3] 105 % of control | [4] 94 % of control

CC1(C)Oc2ccc3ccccc3c2C(c2ccc(O)cc2)=C1c1ccccc1
inactive: [16] 103 % of control | [13] 99 % of control | [17] 94 % of control

Cc1cc(C2(c3cc(C)c(O)c(C)c3)OC(=O)c3ccccc32)cc(C)c1O
inactive: [2] 105 % of control | [3] 99 % of control | [4] 103 % of control

O=C(CCCl)Oc1ccc(Br)cc1
inactive: dose: 100.0 mg/kg/injection, schedule: Q01DX009 (ip), vehicle: saline sonified 111 % of control | dose: 200.0 mg/kg/injection, schedule: Q01DX009 (ip), vehicle: saline sonified 100 % of control | dose: 400.0 mg/kg/injection, schedule: Q01DX009 (ip), vehicle: saline sonified 94 % of control

CC(C)(CO)COC1OCN(C(C)(C)C)CC1(C)C (centres undefined)
inactive: [5] 100 % of control | [6] 110 % of control | [7] 112 % of control

CCOC(=O)NC(NC(=O)OCC)c1ccccc1[N+](=O)[O-]
inactive: dose: 100.0 mg/kg/injection, schedule: Q04DX003 (ip), vehicle: saline 99 % of control | dose: 200.0 mg/kg/injection, schedule: Q04DX003 (ip), vehicle: saline 99 % of control | dose: 400.0 mg/kg/injection, schedule: Q04DX003 (ip), vehicle: saline 89 % of control

Cc1cc(S(=O)(=O)c2ccccc2C(=O)O)nc2c1ccc1ccccc12
inactive: [16] 105 % of control | [13] 103 % of control | [17] 103 % of control

Clc1c(Cl)c(Cl)c(SC2C3CC4C(C3)C42)c(Cl)c1Cl (centres undefined)
inactive: [9] 103 % of control | [10] 108 % of control | [11] 101 % of control
